Laboratory results published in US20090275633A1, “Novel Tumour Suppressor” (ONCOMETHYLOME SCIENCES SA, priority 2006, published 2009).
Entries after “also recorded” stand apart in the source; their conditions may differ.

Key:
[1] = test system: colon cancer cell lines (RKO, Co115, HCT-116, SW48, LoVo); experiment: Apoptosis by flow cytometry (YO-PRO-1/propidium iodide); assay type: cell-based, human; set-up: apoptosis (propidium iodide): dose or concentration left out as unconfirmed; conditions: for apoptosis (propidium iodide): HDAC2-deficient RKO cells, 24 h with SAHA
Description: (§1) FIG. 5. […] Experiments were performed in triplicate.
(§2) Human colorectal and endometrial cancer cell lines were obtained from the American Type Culture Collection. HDAC inhibition treatment was developed adding 0.25 μM trichostatin A, 10 mM sodium valproate or 10 mM sodium butyrate to the culture medium for 24 hours. We obtained DNA samples from 228 human primary malignancies corresponding to colon tumors of HPNCC patients (n=47) and sporadic MSI+colon (n=127), MSI-colon (n=40), gastric (n=38) and endometrial carcinomas (n=16), as well as normal colon tissue (n=6), at the time of clinically indicated surgical procedures. Normal lymphocytes from healthy donors (n=50) was also used. DNA was extracted using standard protocols.
(§3) The percentage of apoptotic cells was determined by flow cytomery using Vybrant® Apoptosis Assay Kit #4-YO-PRO®-1/propidium iodide (Molecular Probes/Invitrogen). To analyze the cell cycle profiles, we stained with propidium iodide and the percentage of cells in G2/M was determined by flow cytometry.

[2] = test system: HCT116, RKO and Co115 tumor xenografts; experiment: Mouse xenograft model with PBS, TSA and BUT treatments; assay type: in vivo, athymic nude mice
Description: a, PBS, BUT and TSA treated female athymic nude mice 17 days after injection of RKO (left flank) and HCT116 (right flank) cells.
b, Tumors were excised and weighed. Tumor detail in cm and weight in mg for PBS-, BUT- and TSA-HCT116, RKO and C0115 cells.
c, Effect of the HDAC inhibitors TSA and sodium butyrate (But) on the in vivo growth of HCT116, RKO and C0115. Tumor size was monitored over time and size in mm3. Dark square: PBS treatment, Dark circle: TSA treatment, Dark triangle: BUT treatment.
Six-week-old female athymic nude mice nu/nu (Harlam Sprague-Dawley, Indianapolis, Ind.), housed under specific pathogen-free conditions (Institutional Animal Welfare Committee Agreement), were used for HCT116, RKO and Co115 tumor xenografts. For treatments, animals were randomly separated in three seven-specimens-groups, differentiated for PBS (Control), TSA (Trichostatin A) and BUT (Butyric acid) treatments. Both flanks of each animal were injected s.c. with 106 (HCT116) or 2×106 (RKO and CO115) cells in a total volume of 200 μL of PBS. For transfections assays both flanks of each animal were injected subcutaneously with 2×106 RKO (left) or RKO-HDAC2-transfected (right) cells in a total volume of 200 μL of PBS. Tumor development at the site of injection was evaluated daily. Animals were sacrificed at 21 days. The tumors were then excised and weighed.

[3] = test system: histones H3 and H4 in colorectal cancer cell lines RKO, Co115, HCT-116, SW48 and LoVo; experiment: Histone H3 and H4 acetylation levels (western blot, HPCE) after treatment with HDAC inhibitors; assay type: cell-based, human; conditions: 24 hours
Description: To address these issues we assessed the effects of three classical HDACis, the hydroxamic acid trichostatin A and the carboxylic acids butyrate and valproate, on five colorectal cancer cell lines: the HDAC2-mutant cell lines RKO and Co115, and the HDAC2-wild type cell lines HCT-116, SW48 and LoVo. We analyzed the acetylation levels at histones H3 and H4 using western blotting with antibodies raised against tetraacetylated peptides of histones H3 and […], and high-performance capillary electrophoresis (HPCE)^3. […] The HDAC2-deficient cells were resistant to trichostatin A action from a biochemical and also a cellular point of view.
as §2
We prepared histones in accordance with established protocols1. We obtained histones from cell lines and tumor samples in parallel with their matching controls under identical conditions. For cell lines, we isolated nuclei with RSB buffer (10 mM Tris 10 (pH 7.5), 10 mM NaCl and 3 mM MgCl2) containing I—Nonidet-P40 and protease inhibitors. We extracted nuclei with 0.25 M HCl and precipitated them with eight volumes of acetone. For tumors and their normal tissue counterparts, we homogenized samples with a Polytron homogenizer (Brinkman Instruments) in 0.25 M HCl and incubated them with gentle agitation for 4 h. We precipitated the resulting supernatant with eight volumes of acetone. We then fractionated individual histones by reverse-phase HPLC on a Jupiter C18 column. We made comparisons only between samples extracted with identical methodology.
For western blotting, we collected cells by centrifugation and washed cell pellets twice with phosphate-buffered saline buffer. For HDAC2 expression, nuclear extracts were fractionated on a 7.5% SDS-PAGE gel, transferred the fractions to a polyvinylidene difluoride membrane with […] (Immobilon PSQ, Millipore), blocked the membrane in 5% milk PBS-T (phosphate-buffered saline with 0.1% Tween-20) and immunoprobed it with antibodies to HDAC2 (1:1000) and HDAC1 (1:1000; both from Abcam). The acetylated forms of histones 3 and 4 were analyzed as previously described2. We extracted the histones directly from the cell pellets with 0.250 M HCl. We fractionated 10 μg of the acid-extracted proteins on a 10% SDS-PAGE gel. Transferred membranes were immunoprobed with antibodies to acetylated H4 (1:2,000, Upstate) and acetylated H3 (1:50,000, Upstate). We used horseradish peroxidase-conjugated antibody to rabbit IgG (Amersham) at 1:3,000 dilution in PBS-T as the secondary antibody and antibody to H4 (1:3,000; Upstate) as a loading control. For immunolocalization experiments, we grew cells on coverslips and stained them with antibodies against HDAC2 and HDAC1 (Abcam) as previously described. We obtained images with a Leica DMRD photomicroscope coupled to a Leica DC200 camera, processed them using Adobe Photoshop software and analyzed them using public National Institutes of Health Image software. Immunohistochemical staining of HDAC2 was performed using a polyclonal antibody (Abcam, Cambridge, UK) at a 1:1500 dilution. After antigen retrieval with citrate buffer, immunodetection was performed by the DAKO EnVision Visualization Method (DAKO, Glostrup, Denmark), with diaminobenzidine chromogen as the substrate
We quantified global histone H4 acetylation as previously described3. […]

[4] = test system: colon cancer cell lines (RKO, Co115, HCT-116, SW48, LoVo); experiment: Cell viability (MTT assay) of colon cancer cell lines; assay type: cell-based, human; conditions: for inhibition of proliferation: all cancer cell lines independently of HDAC2 status
Description: Cells were treated for 48 h with different concentrations of TSA (0-1000 nM). Experiments were performed in triplicate.
as §1, §2
Cell viability was determined as previously described5. Aliquots of 1.5×10^4 cells were plated in 96-well microdilution plates. Following overnight cell adherence, experimental media containing the drugs or control media was added to appropriate wells. After 48 hours, the media was replaced by drug-free fresh media (100 μl/well) containing MTT (50 μg). After a 3 hour incubation at 37° C. in 5% CO2 atmosphere, the MTT was removed and MTT-formazan crystals were dissolved in DMSO (100 μl/well). Absorbance at 570 nm was determined on an automatized microtiter plate reader.

[5] = test system: colon cancer cell lines (RKO, Co115, HCT-116, SW48, LoVo); experiment: Cell cycle analysis (percentage of cells in G2/M, propidium iodide flow cytometry); assay type: cell-based, human; conditions: for blockage of the cell cycle at G2/M: all cancer cell lines independently of HDAC2 status; for G2/M cell cycle arrest: TSA
Description: as §2, §3

[6] = test system: HDAC2-knocked down HCT116 cells; assay type: cell-based, human
Description: (§4) We quantified global histone H4 acetylation as previously described3. We prepared individual histone fractions from cell nuclei and purified them by reverse-phase HPLC on a Jupiter C18 column (Phenomenex, Inc.) with an acetonitrile gradient (20-60%) in 0.3% trifluoroacetic acid, using a HPLC gradient system (Beckman-Coulter). We resolved non-, mono, di-, tri- and tetra-acetylated histone H4 derivatives by HPCE. We used an uncoated fused-silica capillary (Beckman-Coulter; 60.2 cm 75 μm, effective length 50 cm) in a capillary electrophoresis system (P/ACE MDQ, Beckman-Coulter) with 100 mM phosphate buffer (pH 2.0) 0.02% (w/v) HPM-cellulose as running buffer and operating voltages of 12 kV.

[7] = test system: RKO-HDAC2-transfected cells; experiment: H4 acetylation by HPCE in RKO cells transfected with HDAC2; assay type: cell-based, human; conditions: RKO cells transfected with wild-type HDAC2
Description: b, Quantification of H4 acetylation by HPCE.
as §4
The HDAC2 expression vector pcDNA3-HDAC2 was constructed by cloning the cDNA corresponding to the gene HDAC2 in pcDNA vector (Invitrogen). […] C1ones expressing HDAC2 were selected in complete medium supplemented with 1 mg/mL G418. Stable clones were maintained in complete medium with 1 mg/mL G418. For colony formation experiments, stable G418-resistant colonies were fixed, stained with 2% methylene blue in 60% methanol, and the average number of colonies present in each well was determined.

[8] = all colorectal cell lines irrespective of HDAC2 status, 10 mM sodium valproate or 10 mM sodium butyrate
[9] = all cancer cell lines independently of HDAC2 status
[10] = HDAC2-proficient cell lines, TSA
[11] = HDAC2-proficient cell lines, TSA, listed as TSA

## O=C(CCCCCCC(=O)Nc1ccccc1)NO [SAHA, suberoylanilide hydroxamic acid]
[1]
  apoptosis (propidium iodide): enhanced resistance
[1]; listed as suberoylanilide hydroxamic acid (SAHA)
  apoptosis (propidium iodide): unable to efficiently inhibit cell growth and induce apoptosis

## CCCC(=O)[O-].[Na+] [butyrate, sodium butyrate]
[2]; all cancer cell lines xenografted in nude mice (HCT-116, RKO, Co115), independently of HDAC2 status
  tumor shrinkage: induced tumor shrinkage
[3]; [8]
  hyperacetylation of histones H3 and H4: induce hyperacetylation in all cells; also recorded: able to induce hyperacetylation
[4]
  inhibition of proliferation: significantly inhibited proliferation
[1]; [9]
  induction of apoptosis: induced apoptosis
[5]
  blockage of the cell cycle at G2/M: able to induce blockage of the cell cycle at G2/M

## CC(/C=C/C(=O)NO)=C\[C@@H](C)C(=O)c1ccc(N(C)C)cc1 [trichostatin A]
[6]
  histone H4 acetylation mediated by TSA (HPCE): resistant to histone acetylation; also recorded: resistance
[2]; HDAC2-mutant RKO and Co115 xenografts in nude mice
  tumor shrinkage: remained highly resistant
[2]; HDAC2-mutant RKO and Co115 xenografts in nude mice, listed as TSA
  tumor shrinkage: remained resistant
[2]; HDAC2-proficient HCT-116 xenografts in nude mice
  tumor shrinkage: only able to accomplish these effects in the HDAC2-proficient cell line (HCT-116)
[3]; HDAC2-deficient RKO and Co115 cell lines, 0.25 μM trichostatin A
  hyperacetylation of histones H3 and H4: unable to induce the hyperacetylation
[3]; HDAC2-deficient RKO and Co115 cell lines, 0.25 μM trichostatin A, listed as TSA
  hyperacetylation of histones H3 and H4: does not induce histone hyperacetylation
[3]; HDAC2-wild type cells (HCT-116, SW48, LoVo), 0.25 μM trichostatin A
  hyperacetylation of histones H3 and H4: effective
[3]; HDAC2-wild type cells (HCT-116, SW48, LoVo), 0.25 μM trichostatin A, listed as TSA
  hyperacetylation of histones H3 and H4: hyperacetylation is achieved
[4]; HDAC2-deficient cancer cells, general statement
  biochemical and cellular (antiproliferative and proapoptotic) effects of HDAC inhibitors: resistant; also recorded: impairs
[4]; HDAC2-deficient cells (RKO, Co115), TSA 0-1000 nM, 48 h
  cell growth inhibition: remained highly resistant
[4]; HDAC2-deficient cells (RKO, Co115), TSA 0-1000 nM, 48 h, listed as TSA
  cell growth inhibition: marked resistance; also recorded: enhanced resistance
[4]; [10]
  cell growth inhibition: only able to accomplish these effects in the HDAC2-proficient cell lines
[4]; [11]
  cell growth inhibition: induces
[7]
  histone H4 acetylation mediated by TSA (HPCE): more sensitive
[7]; listed as TSA
  histone H4 acetylation mediated by TSA (HPCE): show resistance to histone acetylation
[1]; HDAC2-mutant cells (RKO), TSA
  induction of apoptosis: remained highly resistant
[1]; HDAC2-mutant cells (RKO), TSA, listed as TSA
  induction of apoptosis: marked resistance
[1]; [10]
  induction of apoptosis: only able to accomplish these effects in the HDAC2-proficient cell lines
[1]; [11]
  induction of apoptosis: induces
[5]; HDAC2-mutant cells (RKO)
  G2/M cell cycle arrest: remained highly resistant
[5]; HDAC2-mutant cells (RKO), listed as TSA
  G2/M cell cycle arrest: marked resistance
[5]; HDAC2-proficient cell lines
  G2/M cell cycle arrest: only able to accomplish these effects in the HDAC2-proficient cell lines
[5]; HDAC2-proficient cell lines, listed as TSA
  G2/M cell cycle arrest: induces

## CCCC(CCC)C(=O)[O-].[Na+] [valproate, sodium valproate]
[3]; [8]
  hyperacetylation of histones H3 and H4: induce hyperacetylation in all cells; also recorded: able to induce hyperacetylation
[4]
  inhibition of proliferation: significantly inhibited proliferation
[1]; [9]
  induction of apoptosis: induced apoptosis
[5]
  blockage of the cell cycle at G2/M: able to induce blockage of the cell cycle at G2/M
